≈ marks a conversion by molar mass, not a printed value. Where two headings read alike, the source gives them in different places.
What was measured:
[1] = system: Propionibacterium acens 11828; experiment: Antibacterial spectrum, MIC; format: cell-based
[2] = system: Yersinia enterocolitica IID 981; experiment: microbe, parasite or virus in culture; format: cell-based; conditions: IID981
C. ramosum = experiment: Antibacterial spectrum, MIC; format: cell-based; conditions: Thomasclavelia ramosa; 10^6 cells/ml; Gram +; standard strain; read-out: MIC
S. pyogenes IID 692 = experiment: microbe, parasite or virus in culture; conditions: Streptococcus pyogenes, IID692
[3] = system: Eubacterium lentum GAI 5242; experiment: microbe, parasite or virus in culture; conditions: Eggerthella lenta, GAI5242
F. varium KYA 8501 = experiment: Antibacterial spectrum, MIC; format: cell-based; conditions: Fusobacterium varium, KYA8501
[4] = system: Morganella morganii IID 602; experiment: Antibacterial spectrum, MIC; format: cell-based; conditions: IID602
[5] = system: Bacteroides fragilis GM 7000; experiment: Antibacterial spectrum, MIC; conditions: GM7000
[6] = system: Peptostreptococcus anaerobius KYA 27337; experiment: Antibacterial spectrum, MIC; format: cell-based
P. aeruginosa IFO 12689 = experiment: microbe, parasite or virus in culture; conditions: Pseudomonas aeruginosa, IFO12689
[7] = system: Veillonella parvula KYA 10790; experiment: Antibacterial spectrum, MIC; conditions: KYA10790
Pst. micros UPI 5464-1 = experiment: Antibacterial spectrum, MIC; conditions: Parvimonas micra, UPI54641
P. mirabilis IID 994 = experiment: Antibacterial spectrum, MIC; format: cell-based; conditions: Proteus mirabilis, IID994; 10^6 cells/ml; Gram -; standard strain
Text: (§1) In vitro antibacterial activity (standard strains)
(§2) Organism (10^6 cells/ml)

[8] = system: Klebsiella pneumoniae KY(GN)6445; experiment: Antibacterial spectrum, MIC; format: cell-based; conditions: 10^6 cells/ml, Gram -, standard strain
Text: as §1, §2

S. epidermidis IID 866 = experiment: Antibacterial spectrum, MIC; format: cell-based; conditions: Staphylococcus epidermidis, IID866; 10^6 cells/ml; Gram +; standard strain
Text: as §1, §2

[9] = system: Salmonella enteritidis IID 604; experiment: Antibacterial spectrum, MIC; format: cell-based; conditions: Salmonella enterica; 10^6 cells/ml; Gram -; standard strain
Text: as §1, §2

[10] = system: Acinetobacter anitratus IID 876; experiment: Antibacterial spectrum, MIC; format: cell-based; conditions: Acinetobacter calcoaceticus, IID876; 10^6 cells/ml; Gram -; standard strain
Text: as §1, §2

B. distasonis 8503 = experiment: Antibacterial spectrum, MIC; format: cell-based; conditions: Parabacteroides distasonis, 10^6 cells/ml, Gram -, standard strain
Text: as §1, §2

[11] = system: Streptococcus pyogenes (S-8); experiment: Antibacterial spectrum, MIC; format: cell-based; conditions: 10^6 cells/ml, Gram +, standard strain
Text: as §1, §2

[12] = system: Alcaligenes faecalis 0114002; experiment: Antibacterial spectrum, MIC; format: cell-based; conditions: 10^6 cells/ml, Gram -, standard strain
Text: as §1, §2

B. fragilis 0558 = experiment: Antibacterial spectrum, MIC; format: cell-based; conditions: Bacteroides fragilis, 10^6 cells/ml, Gram -, standard strain
Text: as §1, §2

S. pneumoniae IID 552 = experiment: Antibacterial spectrum, MIC; format: cell-based; conditions: Streptococcus pneumoniae, IID552; 10^6 cells/ml; Gram +; standard strain
Text: as §1, §2

K. pneumoniae 1-220S = experiment: Antibacterial spectrum, MIC; format: cell-based; conditions: Klebsiella pneumoniae, 1220S; 10^6 cells/ml; Gram -; standard strain
Text: as §1, §2

[13] = system: Citrobacter freundii IID 976; experiment: Antibacterial spectrum, MIC; format: cell-based; conditions: IID976, 10^6 cells/ml, Gram -, standard strain
Text: as §1, §2

[14] = system: Enterobacter cloacae IID 977; experiment: Antibacterial spectrum, MIC; format: cell-based; conditions: IID977, 10^6 cells/ml, Gram -, standard strain
Text: as §1, §2

E. faecalis IID 682 = experiment: Antibacterial spectrum, MIC; format: cell-based; conditions: Enterococcus faecalis, IID682; 10^6 cells/ml; Gram +; standard strain
Text: as §1, §2

[15] = system: Serratia marcescens IID 618; experiment: Antibacterial spectrum, MIC; format: cell-based; conditions: IID618, 10^6 cells/ml, Gram -, standard strain
Text: as §1, §2

[16] = system: Staphylococcus aureus 209 P; experiment: Antibacterial spectrum, MIC; format: cell-based; conditions: 10^6 cells/ml, Gram +, standard strain
Text: as §1, §2

[17] = system: Escherichia coli NIHJ JC-2; experiment: Antibacterial spectrum, MIC; format: cell-based; conditions: NIHJJC2, 10^6 cells/ml, Gram -, standard strain
Text: as §1, §2

[18] = system: S. aureus IID 670 (Terajima); experiment: Antibacterial spectrum, MIC; format: cell-based; conditions: Staphylococcus aureus, IID670; 10^6 cells/ml; Gram +; standard strain
Text: as §1, §2

B. fragilis 25285 = experiment: Antibacterial spectrum, MIC; format: cell-based; conditions: Bacteroides fragilis, 10^6 cells/ml, Gram -, standard strain
Text: as §1, §2

[19] = system: Fusobacterium necrophorum S-45; experiment: Antibacterial spectrum, MIC; format: cell-based; conditions: S45, 10^6 cells/ml, Gram -, standard strain
Text: as §1, §2

Shigella sonnei IID 969 = experiment: Antibacterial spectrum, MIC; format: cell-based; conditions: IID969, 10^6 cells/ml, Gram -, standard strain
Text: as §1, §2

E. coli ATCC l0536 = experiment: Antibacterial spectrum, MIC; format: cell-based; conditions: Escherichia coli, ATCCL0536
Text: as §1, §2

[20] = system: Proteus vulgaris IFO 3167; experiment: Antibacterial spectrum, MIC; format: cell-based; conditions: IFO3167, 10^6 cells/ml, Gram -, standard strain
Text: as §1, §2

[21] = system: Pseudomonas aeruginosa V-1; experiment: Antibacterial spectrum, MIC; conditions: V1
[22] = system: Peptococcus magnus KY 017; experiment: microbe, parasite or virus in culture; conditions: Finegoldia magna, KY017
[23] = system: Clostridium perfringens KYA 13123; experiment: microbe, parasite or virus in culture; conditions: KYA13123
[24] = system: B. thetaiotaomicron (0661); experiment: Antibacterial spectrum, MIC; format: cell-based; conditions: Bacteroides thetaiotaomicron; 10^6 cells/ml; Gram -; standard strain; read-out: MIC
[25] = system: Bacillus subtilis PCI 219; experiment: Antibacterial spectrum, MIC by method recommended by Japan Society of Chemotherapy; format: cell-based; conditions: PCI219, 10^6 cells/ml, Gram +, standard strain
Text: as §1, §2

gram-positive bacteria = conditions: background art; cited from earlier work
gram-negative bacteria = conditions: background art; CI-934 compared with Norfloxacin and Ciprofloxacin; cited from earlier work

CC1CN(c2c(F)cc3c(=O)c(C(=O)O)cn(C4CC4)c3c2Br)CCN1.Cl (stereo not shown) [Exp. 18, 8-Bromo-1-cyclopropyl-6-fluoro-1,4-dihydro-7-(3-methyl-1-piperazinyl)-4-oxo-3-quinolinecarboxylic acid hydrochloride]
MIC ([1]; 10^6 cells/ml, Gram +, standard strain, read-out: MIC): 6.25 µg/mL | MIC [2]: 0.1 µg/mL | MIC (C. ramosum): 6.25 µg/mL | MIC (S. pyogenes IID 692): 0.78 µg/mL | MIC [3]: 0.39 µg/mL | MIC (F. varium KYA 8501): 3.13 µg/mL | MIC [4]: 0.1 µg/mL | MIC [5]: 0.78 µg/mL | MIC ([6]; KYA27337, 10^6 cells/ml, Gram +, standard strain, read-out: MIC): 1.56 µg/mL | MIC (P. aeruginosa IFO 12689): 3.13 µg/mL | MIC [7]: 0.39 µg/mL | MIC (Pst. micros UPI 5464-1): 0.39 µg/mL | MIC (P. mirabilis IID 994): 0.025 µg/mL | MIC [8]: 0.05 µg/mL | MIC (S. epidermidis IID 866): 0.2 µg/mL | MIC [9]: 0.05 µg/mL | MIC [10]: 0.05 µg/mL | MIC (B. distasonis 8503): 1.56 µg/mL | MIC [11]: 0.78 µg/mL | MIC [12]: 0.39 µg/mL | MIC (B. fragilis 0558): 0.39 µg/mL | MIC (S. pneumoniae IID 552): 0.78 µg/mL | MIC (K. pneumoniae 1-220S): 0.1 µg/mL | MIC [13]: 0.05 µg/mL | MIC [14]: 0.1 µg/mL | MIC (E. faecalis IID 682): 0.78 µg/mL | MIC [15]: 0.1 µg/mL | MIC [16]: 0.1 µg/mL | MIC [17]: 0.0125 µg/mL | MIC [18]: 0.2 µg/mL | MIC (B. fragilis 25285): 0.39 µg/mL | MIC [19]: 0.78 µg/mL | MIC (Shigella sonnei IID 969): 0.025 µg/mL | MIC (E. coli ATCC l0536): 0.025 µg/mL | MIC [20]: 0.025 µg/mL | MIC [21]: 0.39 µg/mL | MIC [22]: 0.39 µg/mL | MIC [23]: 0.78 µg/mL | MIC [24]: 1.56 µg/mL | MIC [25]: 0.05 µg/mL

CCn1cc(C(=O)O)c(=O)c2cc(F)c(N3CCNCC3)cc21 [Norfloxacin]
activity against gram-positive bacteria (gram-positive bacteria): effective | activity against gram-negative bacteria (gram-negative bacteria): effective

CC1COc2c(N3CCN(C)CC3)c(F)cc3c(=O)c(C(=O)O)cn1c23 (stereo not shown) [OFLX, ofloxacin, reference compound]
MIC [1]: 12.5 µg/mL (≈ 34.6 µM) | MIC [2]: 0.2 µg/mL (≈ 0.553 µM) | MIC (C. ramosum): 12.5 µg/mL (≈ 34.6 µM) | MIC (S. pyogenes IID 692): 3.13 µg/mL (≈ 8.66 µM) | MIC [3]: 0.78 µg/mL (≈ 2.16 µM) | MIC (F. varium KYA 8501; 10^6 cells/ml, Gram -, standard strain, read-out: MIC): 12.5 µg/mL (≈ 34.6 µM) | MIC [4]: 0.1 µg/mL (≈ 0.277 µM) | MIC [5]: 3.13 µg/mL (≈ 8.66 µM) | MIC ([6]; KYA27337): 3.13 µg/mL (≈ 8.66 µM) | MIC (P. aeruginosa IFO 12689): 3.13 µg/mL (≈ 8.66 µM) | MIC [7]: 0.78 µg/mL (≈ 2.16 µM) | MIC (Pst. micros UPI 5464-1): 0.78 µg/mL (≈ 2.16 µM) | MIC (P. mirabilis IID 994): 0.05 µg/mL (≈ 0.138 µM) | MIC [8]: 0.05 µg/mL (≈ 0.138 µM) | MIC (S. epidermidis IID 866): 0.39 µg/mL (≈ 1.08 µM) | MIC [9]: 0.1 µg/mL (≈ 0.277 µM) | MIC [10]: 0.2 µg/mL (≈ 0.553 µM) | MIC (B. distasonis 8503): 6.25 µg/mL (≈ 17.3 µM) | MIC [11]: 1.56 µg/mL (≈ 4.32 µM) | MIC [12]: 0.78 µg/mL (≈ 2.16 µM) | MIC (B. fragilis 0558): 1.56 µg/mL (≈ 4.32 µM) | MIC (S. pneumoniae IID 552): 1.56 µg/mL (≈ 4.32 µM) | MIC (K. pneumoniae 1-220S): 0.2 µg/mL (≈ 0.553 µM) | MIC [13]: 0.1 µg/mL (≈ 0.277 µM) | MIC [14]: 0.1 µg/mL (≈ 0.277 µM) | MIC (E. faecalis IID 682): 1.56 µg/mL (≈ 4.32 µM) | MIC [15]: 0.1 µg/mL (≈ 0.277 µM) | MIC [16]: 0.2 µg/mL (≈ 0.553 µM) | MIC [17]: ≤ 0.025 µg/mL | MIC [18]: 0.39 µg/mL (≈ 1.08 µM) | MIC (B. fragilis 25285): 1.56 µg/mL (≈ 4.32 µM) | MIC [19]: 1.56 µg/mL (≈ 4.32 µM) | MIC (Shigella sonnei IID 969): 0.05 µg/mL (≈ 0.138 µM) | MIC (E. coli ATCC l0536): 0.05 µg/mL (≈ 0.138 µM) | MIC [20]: 0.05 µg/mL (≈ 0.138 µM) | MIC [21]: 0.39 µg/mL (≈ 1.08 µM) | MIC [22]: 0.78 µg/mL (≈ 2.16 µM) | MIC [23]: 0.78 µg/mL (≈ 2.16 µM) | MIC [24]: 6.25 µg/mL (≈ 17.3 µM) | MIC [25]: 0.1 µg/mL (≈ 0.277 µM)

Reference: patent publication US4826982A, “Quinolonecarboxylic acid derivatives” (Kyorin Pharmaceutical Co., Ltd., priority 1985, dated 1989)
